Measurements: the supplement of paper PMC4862054

Tests used:
Experiment in all cases: normalised response (% of control), CellTiter-Glo; higher = more viable cells (100 = DMSO, 0 = benzethonium chloride kill control)
Conditions in all cases: incubation time: 72 h
[1] = system: MDA-MB-436
How it was run: (§1)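 In 384-well plates holding compound at 5 concentrations in 10-fold steps over a 10,000-fold range specific to each compound, breast cancer cell lines were seeded as 20 µl suspension and incubated 72 h. CellTox Green fluorescence was measured at 485/520 nm, after which CellTiter-Glo luminescence was measured following 10 min at room temperature. Plate signals were normalised to 0.1 % DMSO (100) and a positive kill control (0), and each value is the normalised signal at a single concentration.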

[2] = system: BT-549
How it was run: as §1

[3] = system: HCC1937
How it was run: as §1

[4] = system: MFM-223
How it was run: as §1

[5] = system: SK-BR-3
How it was run: as §1

[6] = system: Hs578T
How it was run: as §1

[7] = system: CAL-85-1
How it was run: as §1

[8] = system: HCC1599
How it was run: as §1

[9] = system: MDA-MB-468
How it was run: as §1

[10] = system: CAL-51
How it was run: as §1

[11] = system: HCC1143
How it was run: as §1

[12] = system: BT-474
How it was run: as §1

[13] = system: MCF-10A
How it was run: as §1

[14] = system: MDA-MB-453
How it was run: as §1

[15] = system: DU-4475
How it was run: as §1

[16] = system: HDQ-P1
How it was run: as §1

[17] = system: MDA-MB-231
How it was run: as §1

[18] = system: CAL-148
How it was run: as §1

[19] = system: CAL-120
How it was run: as §1

Row | Compound | normalised response [1] [%] | normalised response [2] [%] | normalised response [3] [%] | normalised response [4] [%] | normalised response [5] [%] | normalised response [6] [%] | normalised response [7] [%] | normalised response [8] [%] | normalised response [9] [%] | normalised response [10] [%] | normalised response [11] [%] | normalised response [12] [%] | normalised response [13] [%] | normalised response [14] [%] | normalised response [15] [%] | normalised response [16] [%] | normalised response [17] [%] | normalised response [18] [%] | normalised response [19] [%]
1 | Nc1cc(C(F)(F)F)c(-c2cc(N3CCOCC3)nc(N3CCOCC3)n2)cn1 [Buparlisib] (1 nM) | 98.9 | 102 | 97.1 | 97.1 | 101 | 97.3 | 92.3 | 90.2 | 96.3 | 112 | 92.6 | 98.8 | 98.8 | 101 | 97.7 | 97.3 | 98.7 | 95 | 103
2 | Nc1cc(C(F)(F)F)c(-c2cc(N3CCOCC3)nc(N3CCOCC3)n2)cn1 [Buparlisib] (10 nM) | 101 | 100 | 93.3 | 97.3 | 110 | 98.4 | 96.5 | 108 | 101 | 113 | 97.2 | 97.3 | 98.2 | 104 | 97.1 | 99 | 103 | 97 | 104
3 | O=P1(N(CCCl)CCCl)NCCCO1 (centres undefined) [Cyclophosphamide] (40 nM) | 99.1 | 97.9 | 95.6 | 100 | 91 | 106 | 98.7 | 98.2 | 101 | 79.3 | 105 | 100 | 102 | 106 | 106 | 98.4 | 99.9 | 104 | 96.8
4 | CNC(=O)c1ccc(N2C(=S)N(c3ccc(C#N)c(C(F)(F)F)c3)C(=O)C2(C)C)cc1F [Enzalutamide] (1 nM) | 102 | 107 | 103 | 99.6 | 108 | 103 | 95.6 | 108 | 101 | 109 | 98.5 | 97.4 | 105 | 103 | 98.9 | 100 | 95 | 102 | 98.8
5 | C=C1C[C@@H]2[C@H](CC[C@]3(C)C(=O)CC[C@@H]23)[C@@]2(C)C=CC(=O)C=C12 [Exemestane] (10 nM) | 104 | 98 | 103 | 108 | – | 99.7 | 108 | 99.1 | 109 | 70.2 | 99.7 | 21 | 116 | 116 | 106 | 98.9 | 106 | 109 | 98
6 | Cc1cc(Nc2cc(CN3CCOCC3)c3nc(C)c(Cc4ccc(Cl)cc4F)n3n2)n[nH]1 [Gandotinib] (10 nM) | 104 | 100 | 94.2 | 105 | – | 99.5 | 101 | 118 | 101 | 92 | 102 | 106 | 108 | 99.3 | 104 | 106 | 102 | 110 | 98.2
7 | O=C(Nc1ccncc1)C(=O)c1cn(Cc2ccc(Cl)cc2)c2ccccc12 [Indibulin] (10 nM) | 99.2 | 93.5 | 98.2 | 107 | – | 104 | 99.9 | 93.4 | 102 | 86.5 | 100 | 112 | 102 | 95 | 105 | 94.1 | 104 | 109 | 92.6
8 | Cc1ccc(NC(=O)c2ccc(CN3CCN(C)CC3)cc2)cc1Nc1nc(-c2cccnc2)cs1 [Masitinib] (10 nM) | 101 | 101 | 97.4 | 105 | – | 98.8 | 99.7 | 93.8 | 108 | 99.4 | 98.4 | 102 | 104 | 113 | 102 | 93.6 | 100 | 108 | 91.5
9 | Cc1[nH]c2ccccc2c1CCNCc1ccc(/C=C/C(=O)NO)cc1 [Panobinostat] (1 nM) | 107 | 101 | 96.5 | 100 | – | 98.7 | 104 | 100 | 103 | 118 | 104 | 103 | 99.9 | 92.8 | 99.1 | 102 | 102 | 101 | 101
10 | COCC1(CO)C(=O)C2CCN1CC2 (centres undefined) [Prima-1 Met] (10 nM) | 101 | 93.7 | 99 | 103 | – | 103 | 103 | 92.7 | 102 | 124 | 103 | 103 | 107 | 111 | 109 | 95.1 | 103 | 102 | 92.4
